Data taken from US9730447B2, “Fungicidal amides” (E I DU PONT DE NEMOURS AND COMPANY, priority 2013, dated 2017).
Marks after values point to notes of the source that are not given here.

What was measured:
Format in all cases: in vivo
Botrytis cinerea = assay: Test A: preventive spray on tomato seedlings, Botrytis cinerea (gray mold), visual disease rating; settings: 100 = 100% disease control, 0 = no control relative to controls, unmarked values; for pest or weed control at 40 µg/mL, 160 g/ha: 96 h
From the text: (§1) General protocol for preparing test suspensions for Tests A-E: the test compounds were first dissolved in acetone in an amount equal to 3% of the final volume and then suspended at the desired concentration (in ppm) in acetone and purified water (50/50 mix by volume) containing 250 ppm of the surfactant Trem® 014 (polyhydric alcohol esters). The resulting test suspensions were then used in Tests A-E. Compounds were sprayed with either a 40 ppm or 10 ppm (*) test suspension to the point of run-off on the test plants which is the equivalent of a rate of 160 g ai/ha or 40 g ai/ha, respectively.
The test suspension was sprayed to the point of run-off on tomato seedlings. The following day the seedlings were inoculated with a spore suspension of Botrytis cinerea (the causal agent of gray mold on many crops) and incubated in a saturated atmosphere at 20° C. for 48 h, and moved to a growth chamber at 27° C. for 2 days, after which time visual disease ratings were made.
(§2) Results for Tests A-E are given in Table A. In the Table, a rating of 100 indicates 100% disease control and a rating of 0 indicates no disease control (relative to the controls). A dash (-) indicates no test results.

[1] = system: Stagonospora nodorum (also known as Septoria nodorum); assay: Test B: preventive spray on wheat seedlings, Stagonospora nodorum (wheat glume blotch), visual disease rating
From the text: as §1
(§3) The test suspension was sprayed to the point of run-off on wheat seedlings. The following day the seedlings were inoculated with a spore suspension of Stagonospora nodorum (also known as Septoria nodorum; the causal agent of wheat glume blotch) and incubated in a saturated atmosphere at 20° C. for 48 h, and then moved to a growth chamber at 20° C. for 6 days, after which time visual disease ratings were made.
as §2

[2] = system: Erysiphe graminis f. sp. tritici; assay: Test E: preventive spray on wheat seedlings, Erysiphe graminis f. sp. tritici (wheat powdery mildew), visual disease rating
From the text: as §1
The test suspension was sprayed to the point of run-off on wheat seedlings. The following day the seedlings were inoculated with a spore dust of Erysiphe graminis f. sp. tritici, (the causal agent of wheat powdery mildew) and incubated in a growth chamber at 20° C. for 8 days, after which time visual disease ratings were made.
as §2

[3] = system: Puccinia recondite f. sp. tritici; assay: Test D: preventive spray on wheat seedlings, Puccinia recondite f. sp. tritici (wheat leaf rust), visual disease rating
From the text: as §1
as §3, with “Puccinia recondite f. sp. tritici; (the” for “Stagonospora nodorum (also known as Septoria nodorum; the”, “leaf rust)” for “glume blotch)”, “24” for “48”
as §2

Septoria tritici = assay: Test C: preventive spray on wheat seedlings, Septoria tritici (wheat leaf blotch), visual disease rating
From the text: as §1
The test suspension was sprayed to the point of run-off on wheat seedlings. The following day the seedlings were inoculated with a spore suspension of Septoria tritici (the causal agent of wheat leaf blotch) and incubated in a saturated atmosphere at 24° C. for 48 h, and then moved to a growth chamber at 20° C. for 21 days, after which time visual disease ratings were made.
as §2

[4] = 100 = 100% disease control, 0 = no control, unmarked values
[5] = values marked with asterisk (*), meaning not given

| SMILES | Test B disease control rating [1, 4] [%] | Test E disease control rating [2, 4] [%] | Test D disease control rating [3, 4] [%] | Test C disease control rating (Septoria tritici; [4]) [%] | other results |
| --- | --- | --- | --- | --- | --- |
| O=C(Nc1ccccc1-c1cnc(-n2ccc(C(F)(F)F)n2)cn1)c1ncccc1C(F)(F)F [Compound 3, 3-(trifluoromethyl)-N-[2-[5-[3-(trifluoromethyl)-1H-pyrazol-1-yl]-2-pyrazinyl]phenyl]-2-pyridinecarboxamide] | – | – | – | – | pest or weed control at 40 µg/mL, 160 g/ha (Botrytis cinerea): 0% |
| O=C(Nc1ccccc1-c1cnc(-n2ccc(C(F)(F)F)n2)c(Cl)c1)c1ncccc1C(F)(F)F [Compound 34, N-[2-[5-chloro-6-[3-(trifluoromethyl)-1H-pyrazol-1-yl]-3-pyridinyl]phenyl]-3-(trifluoromethyl)-2-pyridinecarboxamide] | – | – | – | – | pest or weed control at 40 µg/mL, 160 g/ha (Botrytis cinerea): 96% |
| O=C(Nc1ccccc1-c1ccc(-n2ccc(C(F)(F)F)n2)nn1)c1ncccc1C(F)(F)F [Compound 59, 3-(trifluoromethyl)-N-[2-[6-[3-(trifluoromethyl)-1H-pyrazol-1-yl]-3-pyridazinyl]phenyl]-2-pyridinecarboxamide] | – | – | – | – | pest or weed control at 40 µg/mL, 160 g/ha (Botrytis cinerea): 0% |
| O=C(Nc1ccccc1-c1cnc(-n2cc(Cl)cn2)c(Cl)c1)c1ncccc1C(F)(F)F [Compound 61, N-[2-[5-chloro-6-[4-chloro-1H-pyrazol-1-yl]-3-pyridinyl]phenyl]-3-(trifluoromethyl)-2-pyridinecarboxamide] | – | – | – | – | pest or weed control at 40 µg/mL, 160 g/ha (Botrytis cinerea): 41% |
| Cn1cc(C(=O)Nc2ccccc2-c2cnc(-n3ccc(C(F)(F)F)n3)c(F)c2)c(C(F)F)n1 [Compound 68, 3-(difluoromethyl)-N-[2-[5-fluoro-6-[3-(trifluoromethyl)-1H-pyrazol-1-yl]-3-pyridinyl]phenyl]-1-methyl-1H-pyrazole-4-carboxamide] | – | – | – | – | pest or weed control at 40 µg/mL, 160 g/ha (Botrytis cinerea): 94% |
| CC(Cc1ccc(-n2ccc(C(F)(F)F)n2)nc1)NC(=O)c1cn(C)nc1C(F)F (centres unmarked) [Compound 83, 3-(difluoromethyl)-1-methyl-N-[1-methyl-2-[6-[3-(trifluoromethyl)-1H-pyrazol-1-yl]-3-pyridinyl]ethyl]-1H-pyrazole-4-carboxamide] | – | – | – | – | pest or weed control at 40 µg/mL, 160 g/ha (Botrytis cinerea): 99% |
| CC(Cc1ccc(-n2ccc(C(F)(F)F)n2)nc1)NC(=O)c1ncccc1C(F)(F)F (centres unmarked) [Compound 84, N-[1-methyl-2-[6-[3-(trifluoromethyl)-1H-pyrazol-1-yl]-3-pyridinyl]ethyl]-3-(trifluoromethyl)-2-pyridinecarboxamide] | – | – | – | – | pest or weed control at 40 µg/mL, 160 g/ha (Botrytis cinerea): 66% |
| Cn1cc(C(=O)Nc2ccccc2-c2ccc(-n3ccc(-c4cc(F)cc(F)c4)n3)nc2)c(C(F)F)n1 [compound 89] | 0 | 79 | 100 | – | Test A disease control rating (Botrytis cinerea): 75% |
| Cn1cc(C(=O)Nc2ccccc2-c2ccc(-n3ccc(-c4ccccc4F)n3)nc2)c(C(F)F)n1 [compound 90] | 46 | 72 | 100 | – | Test A disease control rating (Botrytis cinerea): 93% |
| COc1cc(OC)cc(-c2ccn(-c3ccc(-c4ccccc4NC(=O)c4cn(C)nc4C(F)F)cn3)n2)c1 [compound 91] | 33 | 56 | 100 | – | Test A disease control rating (Botrytis cinerea): 87% |
| CC1=C(C(=O)Nc2ccccc2-c2cnc(-n3ccc(C(F)(F)F)n3)c(F)c2)S(=O)(=O)CCO1 [compound 114] | 0 | 64 | 100 | 84 | – |
| O=C(Nc1ccccc1-c1cnc(-n2ccc(C(F)(F)F)n2)c(F)c1)c1nccnc1C(F)(F)F [compound 115] | 100 | 100 | 100 | 98 | – |
| O=C(Nc1ccccc1-c1cnc(-n2ccc(C(F)(F)F)n2)c(F)c1)c1ncsc1C(F)(F)F [compound 126] | 99 | 99 | 100 | 99 | – |
| Cn1cc(C(=O)Nc2ccccc2-c2cnc(-n3ccc(C(F)(F)F)n3)c(C#N)c2)c(C(F)(F)F)n1 [compound 127] | 0 | – | – | – | Test E disease control rating [2, 5]: 40* %; Test C disease control rating (Septoria tritici; [5]): 62* %; Test D disease control rating [3, 5]: 100* % |
| COc1cccc(C2CC(c3ccc(-c4ccccc4NC(=O)c4ncccc4C(F)(F)F)cn3)=NN2C)c1 (centres unmarked) [compound 130] | 11 | 69 | 97 | 89 | – |
| O=C(Nc1ccccc1-c1cnc(-n2ccc(C(F)(F)F)n2)c(Cl)c1)c1ccccc1C(F)F [compound 132] | 0 | 98 | 99 | 99 | – |
| O=C(Nc1ccccc1-c1cnc(-n2ccc(C(F)(F)F)n2)c(F)c1)c1nccnc1Cl [compound 149] | 95 | 98 | 99 | 97 | – |
| Cn1cc(C(=O)Nc2ccccc2-c2cnc(-n3ccc(C(F)(F)F)n3)c(F)c2)c(C(F)(F)F)n1 [compound 150] | 92 | 99 | 100 | 98 | – |
| Cc1nc(C(F)(F)F)c(C(=O)Nc2ccccc2-c2cnc(-n3ccc(C(F)(F)F)n3)c(F)c2)s1 [compound 151] | 0 | 98 | 100 | 98 | – |
| Cc1ccsc1C(=O)Nc1ccccc1-c1cnc(-n2ccc(C(F)(F)F)n2)c(F)c1 [compound 152] | 99 | 99 | 100 | 99 | – |
| Cc1ccsc1C(=O)Nc1ccccc1-c1cnc(-n2ccc(C(F)(F)F)n2)c(C#N)c1 [compound 154] | – | – | – | – | Test B disease control rating [1, 5]: 59* %; Test E disease control rating [2, 5]: 0* %; Test C disease control rating (Septoria tritici; [5]): 94* %; Test D disease control rating [3, 5]: 100* % |
| O=C(Nc1ccccc1-c1cnc(-n2ccc(C(F)F)n2)c(F)c1)c1ncccc1C(F)(F)F [compound 161] | 100 | 99 | 100 | 95 | – |
| Cn1cc(C(=O)Nc2ccccc2-c2cnc(-n3ccc(C(F)F)n3)c(F)c2)c(C(F)F)n1 [compound 162] | 68 | 99 | 100 | 98 | – |
| Cc1sccc1C(=O)Nc1ccccc1-c1cnc(-n2ccc(C(F)(F)F)n2)c(F)c1 [compound 163] | 79 | 96 | 100 | 97 | – |
| O=C(Nc1ccccc1-c1cnc(-n2ccc(C(F)(F)F)n2)c(Cl)c1)c1scnc1C(F)(F)F [compound 165] | 0 | – | – | – | Test E disease control rating [2, 5]: 87* %; Test C disease control rating (Septoria tritici; [5]): 99* %; Test D disease control rating [3, 5]: 98* % |
| O=C(Nc1ccccc1-c1cnc(-n2ccc(C(F)(F)F)n2)c(Cl)c1)c1sccc1C(F)(F)F [compound 167] | – | – | – | – | Test B disease control rating [1, 5]: 98* %; Test E disease control rating [2, 5]: 94* %; Test C disease control rating (Septoria tritici; [5]): 100* %; Test D disease control rating [3, 5]: 100* % |
| O=C(Nc1ccccc1-c1cnc(-n2ccc(C(F)(F)F)n2)c(Cl)c1)c1sccc1Cl [compound 168] | – | – | – | – | Test B disease control rating [1, 5]: 0* %; Test E disease control rating [2, 5]: 64* %; Test C disease control rating (Septoria tritici; [5]): 95* %; Test D disease control rating [3, 5]: 99* % |
| Cc1scnc1C(=O)Nc1ccccc1-c1cnc(-n2ccc(C(F)(F)F)n2)c(Cl)c1 [compound 170] | – | – | – | – | Test B disease control rating [1, 5]: 50* %; Test E disease control rating [2, 5]: 0* %; Test C disease control rating (Septoria tritici; [5]): 74* %; Test D disease control rating [3, 5]: 0* % |
| O=C(Nc1ccccc1-c1cnc(-n2ccc(C(F)(F)F)n2)c(Cl)c1)c1sccc1F [compound 176] | – | – | – | – | Test B disease control rating [1, 5]: 0* %; Test E disease control rating [2, 5]: 0* %; Test C disease control rating (Septoria tritici; [5]): 93* %; Test D disease control rating [3, 5]: 0* % |
